According to patent US10442845B2, “Interferon analogs” (BiOrion Technologies B.V., priority 2009, dated 2019):
Bridge positions count the residues as written; N and C are the ends. Ends that are not written are not given here.

Experiments:
[1] = tested on: Human Hepatocytes (HepG2); assay: ICAM1 expression in human hepatocytes (HepG2); format: cell-based; conditions: 1 ug/ml, 24 hrs, 18srRNA housekeeping control
Protocol: Human Hepatocytes (HepG2) were plated in 12 well plates (1×10^5 cells/well). The cells were grown overnight in 5%/37° C./CO2 incubator. […] After 24 hrs of incubation, cells were lysed, RNA was isolated and reverse transcribed. The cDNA was used for the analysis of Inter-Cellular Adhesion Molecule 1 (ICAM1) expression, which is known to be induced in response to IFNγ. 18srRNA was used a housekeeping control.

[2] = tested on: mouse NIH3T3 fibroblasts; assay: Anti-fibrotic effects in mouse NIH3T3 fibroblasts (α-SMA staining); format: cell-based; conditions: mimetic IFNγ 1 μg/ml, 48 hrs
Protocol: Briefly, 3T3 fibroblasts were seeded in 24 well plates at the density of 6×10^4 cells/well, After 24 hrs, cells were starved in 0.5% FBS containing medium for overnight. Thereafter, cells were incubated in starvation medium with different compounds (PDGF 50 ng/ml, TGFβ 10 ng/ml, mimetic IFNγ 1 μg/ml, 50 ng/ml PDGF+1 μg/ml mimetic IFNγ and 10 ng/ml TGFβ+1 μg/ml mimetic IFNγ). After 48 hrs of incubation, cells were washed, fixed with ethanol:acetone (1:1) and stained for α-SMA (marker of activated fibroblasts).

[3] = tested on: PDGFß-receptor; assay: Binding of FITC-labeled PPB or BiPPB to cultured or freshly isolated primary cells; parameters: species or system rat; conditions: for binding (fluorescence microscopy): FITC-coupled, 10 μg/ml, 2 h, room temperature, rat hepatic stellate cells and other cell types tested
Protocol: The binding of BiPPB was performed in primary freshly isolated rat hepatic stellate cells. Cells were seeded in the 8-well glass plates (Lab-Tek, Nunc, Naperville, Ill.) at 30,000 cells/well in the culture medium. After overnight incubation at 37° C./5% CO2, cells were washed with PBS and subsequently incubated with FITC-labeled PPB (monocyclic) or BiPPB (bicyclic: 10 μg/ml) at room temperature. To block the binding, anti-PDGF-βR IgG was added to the cells 1 h before FITC coupled PPB or BiPPB. After 2 h, cells were washed 3 to 4 times with cold PBS and fixed with 4% paraformaldehyde. The nuclei were counterstained with DAPI and mounted in citifluor (anti-fade reagent) and visualized under fluorescent microscope.
Similar binding experiments were performed in primary freshly isolated human myofibroblasts, mouse 3T3 fibroblasts and human hepatic stellate cells (LX2). For human Hepatic stellate cells, the sequence of BiPPB was as follows: […]

[4] = tested on: liver fibrosis models induced with CCl4 in mice; assay: 4 days (acute) and 8 weeks (chronic) CCl4 liver fibrosis models in mice; format: in vivo, mouse
Protocol: In vivo, the targeted conjugate was examined in 4 days (acute) and 8 weeks (chronic) liver fibrosis models induced with CCl4 in mice. Several fibrotic parameters and infiltration of inflammatory cells were assessed in the livers using immunohistochemistry and gene expression analysis.

[5] = tested on: established advanced liver fibrosis mouse model; assay: Established advanced liver fibrosis mouse model (8 weeks CCl4), liver section staining; format: in vivo
Protocol: Male balb/c mice (20-22 g) were treated with olive oil or increasing doses of CCl4 (week 1: 0.5 ml/kg; week 2: 0.8 ml/kg and week 3-8: 1 ml/kg prepared in olive oil) twice weekly by intra-peritoneal injections for 8 weeks. In week 7 and 8, mice were treated intravenously with PBS, mimeticIFNγ-PEG or MimeticIFNγ-PEG-BiPPB (5 μg/mice, thrice per week). All mice were sacrificed at week 8; blood and liver samples were collected for subsequent measurements. The liver sections were stained for Collagen I and desmin, CD68, 33D1 and MHC class II.

[6] = tested on: acute CCL4-induced liver injury mouse model; assay: Blood count analysis (side effects) in acute CCl4-induced liver injury mouse model; format: in vivo; conditions: 50,000 U/mice at day 2 and 3; p<0.0025
Protocol: At day 1, the animals were given a single intra-peritoneal dose (1 ml/kg) of carbon tetrachloride (CCl4) in olive oil or olive oil (controls n=6). After 24 hrs of CCl4 injection, at day 2 and 3, animals were treated either with PBS (n=6), 50,000 U/mice of IFNγ (n=6), 50,000 U/mice of mimetic IFNγ (n=5), 50,000 U/mice of IFNγ-BiPPB (n=6), 50,000 U/mice of Mimetic IFNγ-BiPPB (n=6).

[7] = 5 μg/mice i.v. thrice per week, week 7 and 8, vs untreated CCl4-mice

FEVNNPQVQRQAFNELIRVVHQLLPESSLRKRKRSR [mouse truncated IFNγ, signaling moiety of murine IFNγ (mimIFNγ), without targeting domain]
ICAM1 expression [1]: neither mouse truncated IFNγ nor Lac-HSA induced ICAM1 expression | ICAM1 expression ([1]; listed as mouse (truncated) INFγ): ineffective

AKFEVNNPQVQRQAFNELIRVVHQLLPESSLRKRKRSR (listed as Mus musculus) [Recombinant mimetic IFNγ]
anti-fibrotic effects (α-Smooth muscle actin staining) [2]: anti-fibrotic effects

human IFNγ: human interferon gamma, positive control in human hepatocytes
ICAM1 expression [1]: upregulated ICAM1 expression

C(1)S R N L I D C(1)G G G D G G C(2)S R N L I D C(2) (CSRNLIDCGGGDGGCSRNLIDC; disulfide 1-8, 15-22; also: FITC label) [BiPPB, Bicyclic peptide against the PDGF-beta-receptor; KGSGSGG linker variant for human hepatic stellate cells]
binding (fluorescence microscopy) [3]: specifically binds | binding (fluorescence microscopy) ([3]; listed as FITC-coupled BiPPB): significant binding | species specificity of binding ([3]; Myo-fibroblast-like cells of rat, mouse and human): species non-specific | binding after blocking with PDGF receptor antibody ([3]; anti-PDGF-βR IgG added 1 h before): almost completely blocked

B1: INFγ: full length mouse Interferon gamma, SEQ ID NO: 54 (protein, listed as Mus musculus)
chain: MNATHCILALQLFLMAVSGCYCHGTVIESLESLNNYFNSSGIDVEEKSLFLDIWRNWQKDGDMKILQSQIISFYLRLFEVLKDNQAISNNISVIESHLITTFFSNSKAKKDAFMSIAKFEVNNPQVQRQAFNELIRVVHQLLPESSLRKRKRSRC
fibrotic parameters ([4]; both acute and chronic liver fibrosis models): only a moderate reduction | MHCII expression ([4]; data not shown): increased MHCII expression | infiltration of inflammatory cells (CD68+ macrophages, neutrophils, 33D1+ dendritic cells) / inflammatory response ([4]; data not shown): induced infiltration of inflammatory cells | collagen I staining (liver sections) [5, 7]: only a small reduction | desmin staining (liver sections) [5, 7]: only a small reduction | MHCII expression in livers ([5]; chronic CCl4 model): increased MHCII expression | infiltration of inflammatory cells (CD68+ macrophages, neutrophils, 33D1+ dendritic cells) in livers ([5]; chronic CCl4 model): induced infiltration of inflammatory cells | reduction in platelet count (PLT) [6]: reduction in platelet count
